According to article PMC10781691, “Vertical pathway inhibition of receptor tyrosine kinases and BAD with synergistic efficacy in triple negative breast cancer” (NPJ Precision Oncology, 2024):
Like-named read-outs stand apart in the source and are kept apart here.

Experiments:
MDA-MB-231 cells [1] = assay: AlamarBlue assay IC50 (Supplementary Fig. 5A); type: cell-based; conditions: Homo sapiens; MDA-MB-231, AlamarBlue assay
From the text: (§1) Ionization potential (I ) 7.21 eV
(§2) Electron affinity (A) 4.79 eV
(§3) Chemical potential (μ) 6.00 eV […]
(§4) using AlamarBlue assay. Data represent means ± SD. (B) Cartoon representation of the compounds NPB (red) and NCK (black) (depicted in ball & stick model) docked to the BAD protein, occupying the same groove with the BAD Serine 99 residue (yellow) nearby. (C) 2D structure representation of compound NPB interacting with BAD protein residues. (D) Cartoon representation of docked compound and molecular electrostatic potential surfaces of NCK. The color code of the compound lies in the range of -0.121e0 to +0.121e0. Red and blue color in the MEP structure point to more electron rich and electron poor regions respectively. (E) The […]

BT549 cells [2] = assay: AlamarBlue assay IC50 (Supplementary Fig. 5A); type: cell-based; conditions: Homo sapiens, BT-549
From the text: as §1, §2, §3, §4

BT549 cells [3] = assay: AlamarBlue cell viability, 3D Matrigel culture; type: cell-based, human
4T1-luciferase cells = system: 4T1-luciferase cells
Method: Since metastasis is the primary contributor to mortality and poor prognosis for TNBC patients, the therapeutic potential of NCK, TKIs or combined NCK-TKI treatment on TNBC metastasis was further evaluated with an experimental lung metastasis model.
In vivo bioluminescent imaging was performed to determine the incidence and metastatic burden of luciferase-labeled 4T1 cells. Mice were injected i.p. with 10 mg/ml of D-luciferin (Gold Biotechnology, MO, USA) and imaged using a PerkinElmer IVIS Spectrum system. PDX were generated as previously described by transplanting fresh fragments orthotopically into 8-week-old female nonobese diabetic (NOD)/severe combined immunodeficient (SCID) mice (Beijing Vital River Laboratory Animal Technology Co., Beijing, China) (P1, passage 1)[40]. The P1 xenografts were then fragmented, digested into single-cell suspension and implanted into mammary fat pad (100 μL PBS containing growth factor reduced 50% Matrigel) of NOD/SCID mice. Once orthotopic xenografts reached an approximate size of 100 mm^3, the mice were randomly divided into three groups (n = 8) for single drug studies and six groups (n = 6) for combination studies and Kaplan-Meier (KM) analyses. […] Animal body weight and xenograft size were measured daily using an electronic balance and a digital caliper, respectively. Xenograft volume (mm^3) was calculated by using the formula: 0.52 × length × [width]^2. Complete response (CR) was achieved if the average xenograft volume for the treatment group was unable to be determined for two or more consecutive measurements. Partial response (PR) was achieved if the average xenograft volume reduced to <50 mm^3 for two or more consecutive measurements. After 3-week drug treatment, all mice were sacrificed by CO2 inhalation. Tumor and vital organs were weighed and isolated for further analysis. IHC analysis of xenograft histology sections and quantitative polymerase chain reaction (qPCR) were performed as previously described. […] For PDX, xenograft growth was monitored daily by measurement of the xenograft volume until mice humane endpoint ( ~ 1000 mm^3).
luciferase cell generated metastasis model. Scale bar, 20 µm. (C) Animal weight of each
treatment group was indicated. (D) Changes in relative lung, liver, spleen, heart and kidney
(CRI) or combinations during the study at day 9.

BT549 cells [4] = assay: Cell cycle analysis by PI flow cytometry; type: cell-based, human; conditions: BT549, 5 μM
MDA-MB-231 cells [5] = assay: AlamarBlue cell viability, 3D Matrigel culture; type: cell-based, human
MDA-MB-231 cells [6] = assay: Cell survival after siRNA-BAD or scrambled control and NCK; type: cell-based, human
From the text: To confirm the functional specificity of NCK to BAD, the effect of NCK treatment after siRNA-mediated depletion of BAD expression was examined in MDA-MB-231 cells. […] Consistent with previous findings[32]–[34], no significant changes in cell viability nor CASPASE 3/7 activity were observed upon transfection of siRNA directed to the BAD transcript (Fig. 2g–i).

[7] = Pharmacokinetics after IV and oral administration; type: in vivo, Sprague-Dawley (SD) rats; set-up: AUClast/D: unit not given here; conditions: SD rats; for MRT inf: read-out: MRTInf_obs
Method: The pharmacokinetics of NCK were determined via intravenous (IV) and oral administration in Sprague-Dawley (SD) rats (Supplementary Fig. 7).
Supplementary Figure 7: (A) Plasma concentration of NCK after intravenous (IV, 1 mg/kg) (red) or oral (PO, 10 mg/kg) (blue) administration in SD rats. Results represent the mean ± SD of three animals. (B) Pharmacokinetic parameters of NCK in plasma after IV injection (1 mg/kg) or oral administration (10 mg/kg). AUCinf: Area Under the Plasma Concentration-Time Curve from t=0 to infinity; AUClast: Area Under the Plasma Concentration-Time Curve from t=0 to last measurable positive concentration; AUC_%Extrap_obs: Percent Extrapolated AUC from tlast to infinity; C0: Initial concentration in plasma; Cmax: Peak concentration in plasma; Cl_obs:
Plasma systemic clearance; F: Absolute oral bioavailability; MRTInf_obs: Mean residence time from t=0 to infinity ;T1/2: Elimination half- life; Tmax: Time of peak concentration in plasma; Vss_obs: Volume of Distribution at Steady- state

LCK = system: LCK; set-up: method as in SelleckChem; conditions: ref SelleckChem; cited from earlier work
[8] = BALB/c mice, day 9, NCK 20 mg/kg, OSI 50 mg/kg, CRI 50 mg/kg
[9] = Sprague-Dawley, rat, plasma, IV 1 mg/kg
[10] = Sprague-Dawley, rat, plasma, PO 10 mg/kg

SMILES: Oc1ccccc1C(c1cccnc1)N1CCN(c2cccc(Cl)c2Cl)CC1 (stereo not shown) [NCK, 2-((4-(2,3-dichlorophenyl)piperazin-1-yl)(pyridin-3-yl)methyl) phenol]
- IC50 (MDA-MB-231 cells [1]): 4940 ± 2800 nM
- IC50 (BT549 cells [2]): 12100 ± 1360 nM
- growth in 3D Matrigel (BT549 cells [3]; BT549, 5 μM each): reduced cell growth in 3D Matrigel
- fold IC50 difference NCK vs NPB (BT549 cells [3]; BT549, 3D Matrigel): ~ 8 fold
- IC50 (BT549 cells [3]; Homo sapiens, BT-549, BT549, 3D Matrigel, AlamarBlue): 309 nM
- lung metastases (bioluminescent signals) vs control (4T1-luciferase cells; 4T1-luciferase metastasis model): significantly abrogated lung metastases
- Relative Heart Weight (4T1-luciferase cells; [8]): 0.51±0.07%
- Relative Kidney Weight (4T1-luciferase cells; [8]): 1.40±0.07%
- Relative Liver Weight (4T1-luciferase cells; [8]): 4.55±0.21%
- Relative Lung Weight (4T1-luciferase cells; [8]): 1.70±0.49%
- Relative Spleen Weight (4T1-luciferase cells; [8]): 1.54±0.54%
- decrease in S-phase (BT549 cells [4]): 27.12%
- increase in G1-phase (BT549 cells [4]): 30.43%
- IC50 (MDA-MB-231 cells [5]; Homo sapiens, MDA-MB-231, 3D Matrigel, AlamarBlue): 239 nM
- growth in 3D Matrigel (MDA-MB-231 cells [5]; MDA-MB-231, 5 μM each): reduced cell growth in 3D Matrigel
- fold IC50 difference NCK vs NPB (MDA-MB-231 cells [5]; MDA-MB-231, 3D Matrigel): ~ 6 fold
- cell viability vs vehicle (MDA-MB-231 cells [6]; MDA-MB-231, 5 μM NCK): decreased cell viability
- effect on cell viability and CASPASE 3/7 activity after siRNA-mediated depletion of BAD (MDA-MB-231 cells [6]; MDA-MB-231, siRNA-BAD, 5 μM NCK): abolished the effect of NCK
- AUC_%Extrap_obs ([7]; IV 1 mg/kg): 2.51%
- AUClast/D ([7]; IV 1 mg/kg): 280
- Vss_obs ([7]; IV 1 mg/kg): 5.93 L/kg
- AUC_%Extrap_obs ([7]; PO 10 mg/kg): 2.14%
- AUClast/D ([7]; PO 10 mg/kg): 105
- AUC(0-inf) [7, 9]: 288 ng·h/mL
- AUC(0-t) [7, 9]: 280 ng·h/mL
- C0 [7, 9]: 554 ng/mL
- half-life [7, 9]: 3.35 h
- MRT inf [7, 9]: 1.72 h
- bioavailability ([7]; Sprague-Dawley, rat, plasma, PO 10 mg/kg vs IV 1 mg/kg, read-out: F (absolute oral bioavailability)): 37.2%
- AUC(0-inf) [7, 10]: 1070 ng·h/mL
- AUC(0-t) [7, 10]: 1050 ng·h/mL
- Cmax [7, 10]: 346 ng/mL
- Tmax [7, 10]: 0.33 h
- half-life [7, 10]: 2.68 h
- MRT inf [7, 10]: 4 h
- clearance ([7]; Sprague-Dawley, rat, IV 1 mg/kg, plasma, read-out: Cl_obs (clearance)): 58.3 mL/min/kg

SMILES: O=C(Nc1ccc(OC(F)(F)F)cc1)c1sccc1NCc1ccnc2ccccc12 [OSI-930]
- IC50 (LCK): 22 nM
